# Measured values: patent US20240360185A1, “AV3 MUTANT INSECTICIDAL POLYPEPTIDES AND METHODS FOR PRODUCING AND USING SAME” (Vestaron Corporation, priority 2018, published 2024)
# “And” between values parts separate entries of the source, which are not always exact repeats. Equal entries are not always repeated. “Also recorded” adds a separate entry of the source. Ends that are not written are not given here.
# Assays:
# [1] = test system: Aedes aegypti; experiment: adult mosquito topical bioassay; assay type: in vivo; settings: for activity relative to native Av3: 3 hours post application; for Knock-down 50 at 3 hr, Average: Table 5; for KD50 at 3-hours: post topical application; for Knock-down 50 at 3 hr: Table 5, single determinations; for paralysis and kill of adult mosquitos upon topical application: in vivo; for synergy with permethrin: permethrin 500 ppb
# Experimental: Native Av3, R1K mutant Av3 (Av3a) and R1K+AC-Val double mutant Av3 (Av3a-C1, or Av3b) were evaluated in the adult mosquito topical bioassay. The adult mosquitoes were ordered from Benzon Research. The adult mosquitoes were immobilized using CO2 gas and transferred onto a CO2 pad with CO2 flowing to keep them immobilized during topical applications. A hand microapplicator equipped with 1 cc glass syringe with a 30 gouge straight needle was used for the application of droplet. 0.25 μl droplet of toxin solution per mosquito was pushed out from the needle and gently applied to the ventral side of the mosquito abdomen. The treated mosquitoes were put into a 2.5 oz. clear cup with moisture filter paper and lid with breathing holes. Score the treated mosquitoes for paralysis or death within 24 hours post-application. […] FIG. 13.
# [2] = test system: houseflies (Musca domestica); experiment: housefly injection assay; assay type: in vivo; settings: for lowest dose to produce knock-down activity: within the first 4 hours post injection; for activities in fly injection assay / toxicity to houseflies by injection: in vivo; for recovery of the knock-down flies: 100 pmol/g dose; for lethal activity to houseflies: injection; for effect on housefly mortality: dose of 10, 50, and 100 nmol/g for 24 hours
# Experimental: An exemplary housefly injection bioassay is as follows: conditioned media is serially diluted to generate full dose-response curves from the housefly injection bioassay. Before injection, adult houseflies (Musca domestica) are immobilized with CO2, and 12-18 mg houseflies are selected for injection. A microapplicator, loaded with a 1 cc syringe and 30-gauge needle, is used to inject 0.5 μL per fly, doses of serially diluted conditioned media samples into houseflies through the body wall of the dorsal thorax. The injected houseflies are placed into closed containers with moist filter paper and breathing holes on the lids, and they are examined by knock-down ratio or by mortality scoring at 24 hours post-injection. Normalized yields are calculated. Peptide yield means the peptide concentration in the conditioned media in units of mg/L. However, peptide yields are not always sufficient to accurately compare the strain production rate. […] The cell density is represented by the light absorbance at 600 nm with a unit of “A” (Absorbance unit).
# A Housefly injection assay was performed to compare the activity of Av3b with GenScript Synthetic Av3b. FIG. 33. Adult houseflies were immobilized in CO2 for 10 minutes and then transferred to a CO2 pan to keep them immobilized. Flies with weight between 12-20 mg were picked for injection. The synthetic peptides were diluted in water to proper doses for injection. 0.5 μL peptide solution was injected into housefly at the dorsal thorax using a hand-microapplicator with 1 cc all-glass syringe with 30 gouge straight needle. The injected flies were then transferred to a 2 oz transparent portion container with a wet #4 filter paper. Fly score was accessed at 2 hour, 3 hour, 4 hour and 24 hour post-injection. […] Core-5 and Core-4 synthetic polypeptides were also evaluated in the housefly injection assay. FIG. 34. […] FIG. 36.
# [3] = test system: houseflies; experiment: housefly feeding assay (oral toxicity); assay type: in vivo
# Experimental: The oral toxicity of Av3+2−C1 peptide was evaluated in the housefly feeding assay by mixing 20 PPT Av3+2−C1 with fly food (1:1 sugar: dry milk) and observed for 96 hours. Knock-down and dead flies were observed starting at 24-hour post-feeding and accumulated with time. FIG. 19. Unlike the housefly injection bioassay, recovery from paralysis in the feeding assay was not observed, likely due to the fact that the houseflies were continuously dosed in the later bioassay. FIG. 20.
# [4] = incubation of purified peptide in fermentation beer with untransformed K. lactis; assay type: physicochemical; settings: 8 days at room temperature
# Experimental: The pLB102-YCT-18 strain's apparent expression of two Av3+2 peptides, i.e., Av3+2 and Av3+2−C1, raised the question as to whether the C-Val cleavage observed in Peak 1 (SEQ ID NO: 19) occurred during peptide expression and secretion, or whether it occurred in the spent medium/fermentation beer as a result of endogenous proteases secreted from K. lactis. To answer this question, Av3+2 peptide was purified according to the abovementioned methods, and incubated with the fermentation beer in concert with untransformed K. lactis strain (i.e., a null strain) for 8 days at room temperature (RT). FIG. 4.
# [5] = test system: crustacean and insect sodium channels; settings: cited from earlier work
# [6] = 1000 pmol/g dose, overnight observation
# [7] = Table 9, synthetic polypeptides
substance,measurement,setting,value
KSCCPCYWGGCPWGQNCYPEGCSGPKV [Av3a],activity relative to native Av3,[1],the same as native Av3
same,"Knock-down 50 at 3 hr, Average",[1],109.05 ppm
same,KD50 at 3-hours,[1],38.8 ppm
GSRSCCPCYWGGCPWGQNCYPEGCSGPK (ends and bridges not checked; cysteine pairing not given here) [Av3+2−C1],recovery of knock-down flies,[2]; [6],Recovery of the knock-down flies was observed
same,recovery of knock-down flies,[2]; 5000 and 20000 pmol/g doses,No recovery was observed
same,KD50 at 4-hours,[2]; housefly injection,651 pmol/g
same,lowest dose to produce knock-down activity,[2],500 pmol/g
same,"Knock-down 50 at 3 hr, Average",[1],747.9 ppm
same,Knock-down 50 at 3 hr,[1],952.7 ppm and 543.1 ppm
same,paralysis and kill of adult mosquitos upon topical application,[1],fast paralyze and eventually kill adult mosquitoes
same,KD50 at 3-hours,[1],543.12 ppm and 500-900 ppm and 952.69 ppm
same,recovery after maximum knock-down,[1]; topical application,recovery was observed thereafter
same,knock-down and dead flies first observed post-feeding,[3]; 20 PPT mixed with fly food,24 h
same,oral toxicity to houseflies,"[3]; 20 PPT mixed with fly food, observed for 96 hours",toxic to houseflies when consumed and/or upon oral contact
same,recovery from paralysis,"[3]; continuous feeding, 20 PPT",not observed
KACCPCYWGGCPWGAACYPAGCAAAK (Pharmacophore mutant) [Core 5],KD50 at 3 hr,[2]; [7],1621 pmol/g
same,activity reduced,[2]; housefly injection,around 3 fold
KSCCPCYWGGCPWGQNCYPEGCSGPK [Synthetic Av3b],KD50 at 3 hr,"[2]; Table 8, synthetic peptide",633.02 pmol/g
same,KD50 at 3 hr,[2]; [7],540 pmol/g
same,activities in fly injection assay,[2],showed activities in fly injection assay
RSCCPCYWGGCPWGQNCYPEGCSGPK (ends and bridges not checked; cysteine pairing not given here) [Av3-C1],recovery of the knock-down flies,[2]; overnight observation,very rare
same,KD50 at 4-hours,[2]; housefly injection,521 pmol/g
same,lethal activity to houseflies,[2],no potent lethal activity
GSRSCCPCYWGGCPWGQNCYPEGCSGPKV (not fully specified; ends and bridges not checked) [Av3+2],recovery of knock-down flies,[2]; [6],Recovery of the knock-down flies was observed
same,recovery of knock-down flies,[2]; 5000 and 20000 pmol/g doses,No recovery was observed
same,paralysis effect in combination with fermentation beer from AaIT1 expression K. lactis strain,[2]; Av3+2 peptide at 500 pmol/g dose,synergistic instead of additive paralysis effect
same,KD50 at 4-hours,[2]; housefly injection,490 pmol/g
same,toxicity to houseflies by injection,[2],toxic to houseflies
same,lowest dose to produce knock-down activity,[2],100 pmol/g
same,"Knock-down 50 at 3 hr, Average",[1],281.5 ppm
same,Knock-down 50 at 3 hr,[1],230 ppm and 235.7 ppm and 347.7 ppm and 312.6 ppm
same,KD50 relative to that observed for native Av3,[1]; at 3-hours,roughly 5 fold
same,paralysis and kill of adult mosquitos upon topical application,[1],fast paralyze and eventually kill adult mosquitoes
same,synergy with permethrin,[1]; peptide 200 ppm,some synergy
same,KD50 at 3-hours,[1],235.71 ppm and 312.57 ppm and 200-300 ppm and 229.9 ppm
same,recovery after maximum knock-down,[1]; topical application,limited recovery thereafter; also recorded: recovery observed over time; also recorded: not much recovery effects observed thereafter
same,C-Val cleavage / stability,[4],did not result in any apparent C-Val cleavage
KSCCPCYWGGCPWGQNCYPEGCSGPK [Av3b],KD50 at 3 hr,"[2]; Table 8, AAA Calibrate stock at 32.5 mg/mL",172.22 pmol/g
same,KD50 at 3 hr,"[2]; Table 8, non-AAA stock at 50 mg/mL",265.21 pmol/g
same,activity relative to native Av3,[1]; listed as Av3a-C1,two-fold less active; also recorded: about twice as less active
same,"Knock-down 50 at 3 hr, Average",[1],81.63 ppm
same,Knock-down 50 at 3 hr,[1]; listed as Av3a-C1,86.9 ppm and 86.1 ppm and 71.9 ppm
same,KD50 at 3-hours,[1],71.9 ppm
"RSCCPCYWGGCPWGQNCYPEGCSGPKV [Av3, reference compound]",recovery of the knock-down flies,[2]; overnight observation,very rare
same,KD50 at 4-hours,[2]; housefly injection,606 pmol/g
same,toxicity to houseflies by injection,[2],toxic to houseflies
same,lethal activity to houseflies,[2],no potent lethal activity
same,"Knock-down 50 at 3 hr, Average",[1],45.98 ppm
same,synergy with permethrin,[1],some synergy
same,KD50 at 3-hours,[1]; listed as Native Av3,58 ppm and 42.6 ppm
same,recovery after maximum knock-down,[1]; topical application,no obvious recovery observed thereafter
same,time at which knock-down effect reached its maximum,[1]; topical application,1 h
same,selectivity for crustacean and insect sodium channels,[5],high selectivity
PYWPWY (Pharmacophore mutant) [Core-1],effect on housefly mortality,[2],did not appear to have an effect on housefly mortality
KACCPCYWAACPWAAACYAAACAAAK (Pharmacophore mutant) [Core 4],activities in fly injection assay,[2],dramatically reduced activities
KPYWPWYKV (Pharmacophore mutant) [Core-2],effect on housefly mortality,[2],did not appear to have an effect on housefly mortality
KPYWPWYK (Pharmacophore mutant) [Core-3],effect on housefly mortality,[2],did not appear to have an effect on housefly mortality
